Experimental data taken from patent US7348304B1, “Fragrance material” (priority 2004, dated 2008).
Where two headings read alike, the source gives them in different places.

Key:
[1] = Odor character / fragrance assessment of the material and fractions
[2] = prior-art characterisation; cited from earlier work
subjects = assay: Determination of approximate aqueous odor threshold (paired beakers, sniffing); type: in vivo; design: key: “X” means correct positive identification; “-” means unable to identify
Method: 2 mg of the compound of the invention according to Example I were dissolved in 1.0 ml ethanol and serial dilutions made in deionized water to give test solutions of the compound at concentrations of 100, 20, 4, and 1 ppb.
Pairs of loosely-covered beakers were presented to three subjects, one beaker containing deionized water and the other a test solution. The subjects were asked to identify the beaker containing the test solution by removing the covers and sniffing, with the following results (“X” means correct positive identification, “-” means unable to identify): […]

[3] = Assessment of stability of the compound (olfactory assessment of stored aqueous solution); type: physicochemical
Method: 50 ml of a 250-ppb aqueous solution of the compound of the invention according to Example I was held in a covered 100 ml glass weighing bottle for seven months. Environmental conditions were ambient room light (fluorescent and indirect sunlight during daytime; dark at night) and temperature (16-26° C.). The bottle was opened approximately bi-weekly, admitting fresh air and allowing olfactory assessment of the odor strength.

In the case of `C[C@H]1C(=O)C[C@@H]2[C@@H]3[C@H]1[C@@]2(C)CCCC3(C)C` [The C-9 epimer, (1R,2S,7R,8R,9R)-2,6,6,9-tetramethyltricyclo-[5.4.0.0^2,8]undecan-10-one, reference compound], the odor character [1] is reported as “no distinctive or useful fragrance properties”.

For `CC1CCC2C(C)(C)C3CC12CC1OC13C` (centres unmarked) [cedrene epoxide], the odor [2] is given as “woody-amber-camphor”.

In the case of `CC(=O)C1=C(C)[C@@H]2C[C@@]3(C1)[C@H](C)CC[C@H]3C2(C)C` [methyl cedryl ketone], the odor [2] is listed as “musk-woody”.

In the case of `C=C(C[C@H](C)CO)[C@H]1CC=C(C)C1(C)C` [(−)-(1′R,2S)-2-methyl-4-(2′,2′,3′-trimethyl-3′-cyclopenten-1′-yl)-4-penten-1-ol], the odor [2] is listed as “sandalwood; cedar”.

For `C[C@@H]1C(=O)C[C@@H]2[C@@H]3[C@H]1[C@@]2(C)CCCC3(C)C` [the compound of the invention, (1R,2S,7R,8R,9S)-2,6,6,9-tetramethyltricyclo[5.4.0.0^2,8]undecan-10-one], the “identification of the beaker containing the test solution” value (“identification” below) (subjects; 1 ppb in deionized water, Subject 3) was “X”, the “identification” value (subjects; 4 ppb in deionized water, Subject 1) was “X” and the “identification” value (subjects; 4 ppb in deionized water, Subject 3) was “X”. The “identification” value (subjects; 20 ppb in deionized water, Subject 1) was “X”, the “identification” value (subjects; 20 ppb in deionized water, Subject 3) was “X” and the “identification” value (subjects; 100 ppb in deionized water, Subject 1) was “X”. For the same compound, the “identification” value (subjects; 100 ppb in deionized water, Subject 2) was “X”, the “identification” value (subjects; 100 ppb in deionized water, Subject 3) was “X” and the odor character ([1]; listed as Example III) was “Cedar, woody, cigar box, tobacco, slightly animal—civet. Long-lasting in dry-down”. The odor character ([1]; listed as The compound) was “intense, pleasant and characteristic cedar wood odor”, the “odor intensity after storage” value ([3]; 250-ppb aqueous solution, seven months, ambient room light, 16-26° C., opened approximately bi-weekly) was “No decrease in odor intensity” and the stability ([3]; action of light, oxygen, and moisture) was “stable against the action of light, oxygen, and moisture”.

For `CC(=O)/C=C/[C@@H]1C(C)=CCCC1(C)C` [(S)-alpha-ionone], the odor [2] is given as “cedarwood, raspberry”.

For `CC(=O)O[C@]1(C)CC[C@@]23C[C@@H]1C(C)(C)[C@@H]2CC[C@H]3C` [cedryl acetate], the odor [2] is listed as “woody-vetiver”.

For `CO[C@@]1(C)CC[C@@]23C[C@@H]1C(C)(C)[C@@H]2CC[C@H]3C` [methyl cedryl ether], the odor [2] is given as “woody-amber”.

In the case of `CCC(=O)C1CCC=CCCC=CCCC1` (centres unmarked) [1-(4,8-cyclododecadienyl)-1-propanone], the odor [2] is listed as “cedarwood, amber, pepper”.
